In US20100292081A1, “Herbicidal Control Using Sulfentrazone and Dithiopyr” (FMC Corporation, priority 2009, published 2010):

Tests used:
Type in all cases: in vivo
[1] = system: large crabgrass (Digitaria sanguinalis); assay: Pre-emergent herbicidal evaluation on turf plots (Example 1), large crabgrass
Excerpt: (§1) The presence of a synergistic effect between the two active ingredients is established with the aid of the Colby equation (see Colby, S. R., “Calculating Synergistic and Antagonistic Responses of Herbicide Combinations”, Weeds 1967, 15, pg 20-22): E=X+Y−(XY/100).
(§2) Using the method of Colby, the presence of a synergistic interaction between two active ingredients is established by first calculating the expected activity, ‘E’, of the mixture based on activities of the two components applied alone. In the equation above, ‘X’ is the herbicidal activity in percentage control of sulfentrazone applied alone at rate ‘x’. The ‘Y’ term is the herbicidal activity of dithiopyr applied alone at rate ‘y’. The equation calculates ‘E’, the herbicidal activity of the mixture of ‘X’ at rate ‘x’ with ‘Y’ at rate ‘y’. If ‘E’ is lower than the observed activity, synergy is present. If the herbicidal effects are strictly additive, and no interaction has occurred, ‘E’ will be equal to or higher than the observed activity.
(§3) Test compositions containing sulfentrazone (Dismiss™ Turf Herbicide), dithiopyr (DIMENSION® Ultra 40WP Specialty Herbicide) and mixtures thereof, were diluted with water to provide the appropriate test rate concentrations.
(§4) The size of each experimental turf plot was 4 feet by 4 feet, treating the inner 10 ft^2 per plot. The application of each test composition was performed with a pressurized back-pack sprayer, calibrated to spray between 10 and 15 gallons per acre. Four replications were made for each test rate along an untreated control plot.
In order t to provide a measure of the effectiveness of a herbicide's performance weed control ratings were based on visual observations of the presence or absence of various weeds or of symptoms (necrosis, wilting, curling of leaves, discoloration etc.) on weeds compared to lack of symptoms. Ratings are based on the 0 to 100 rating system, where 0 equals no control and 100 equals complete control, which generally makes use of direct-percentage figures. In this system the standard basis for comparison is an untreated weedy check. […]

[2] = system: parsley piert (Alchenilla arvensis); assay: Pre-emergent herbicidal evaluation on turf plots (Example 1), parsley piert
Excerpt: as §1, §2, §3, §4
(§5) Control of large crabgrass (Digitaria sanguinalis), parsley piert (Alchenilla arvensis), common chickweed (Stellaria media) and shiny cudweed (Gnaphalium spicatum) was evaluated at 23 days after treatment (DAT) for each test rate. In order t to provide a measure of the effectiveness of a herbicide's performance weed control ratings were based on visual observations of the presence or absence of various weeds or of symptoms (necrosis, wilting, curling of leaves, discoloration etc.) on weeds compared to lack of symptoms. […]

[3] = system: common chickweed (Stellaria media); assay: Pre-emergent herbicidal evaluation on turf plots (Example 1), common chickweed
Excerpt: as §1, §2, §3, §4, §5

[4] = system: shiny cudweed (Gnaphalium spicatum); assay: Pre-emergent herbicidal evaluation on turf plots (Example 1), shiny cudweed
Excerpt: as §1, §2, §3, §4, §5

[5] = system: broadleaf weeds (medic, buckhorn plantain, clover, red sorrel, dandelion); assay: Post-emergent herbicidal evaluation on turf plots (Example 2), broadleaf weeds in total; conditions: 45 DAT, NIS 0.25% V/V
Excerpt: as §1, §2
(§6) Control of large crabgrass (Digitaria sanguinalis), parsley piert (Alchenilla arvensis), common chickweed (Stellaria media) and shiny cudweed (Gnaphalium spicatum) was evaluated at 23 days after treatment (DAT) for each test rate. In order t to provide a measure of the effectiveness of a herbicide's performance weed control ratings were based on visual observations of the presence or absence of various weeds or of symptoms (necrosis, wilting, curling of leaves, discoloration etc.) on weeds compared to lack of symptoms. Ratings are based on the 0 to 100 rating system, where 0 equals no control and 100 equals complete control, which generally makes use of direct-percentage figures. In this system the standard basis for comparison is an untreated weedy check. Counts are made of each weed species found in the untreated area of the study. This provides a basis to give a precise representation of both weed infestation and degree of control provided by various chemical treatments. Counts are made on randomly selected areas which are generally 1 square foot to 1 square yard in size. Ratings are made for each weed species found in the untreated treatments. For example, a random area in an untreated plot has 10 yellow nutsedge plants per square foot equaling 0% control. A treated plot has only 1 yellow nutsedge plant found in the randomly selected area equaling 90% control.
Test compositions containing sulfentrazone (Dismiss™ Turf Herbicide), dithiopyr (DIMENSION® Ultra 40WP Specialty Herbicide) and mixtures thereof, were diluted with water to provide the appropriate test rate concentrations. A non-ionic surfactant (NIS) was added to each test solution, 0.25% V/V.
as §4, with “plot. The post-emergence application of” for “plot. The application of”
Control of broadleaf weeds was evaluated at 45 days after treatment (DAT) for each test rate. The broadleaf weeds included medic (Medicago sp.), buckhorn plantain (Plantago lanceolata), clover (Trifolium sp.), red sorrel (Rumex acetosella) and dandelion (Traxacum afficinale). Percent control of the broadleaf weeds was reported as a total number of broadleaf weeds controlled, not as individual species. The evaluation results were compared with results observed in untreated control plots in the same trials as described in Example 1 to determine % control and are summarized in Table 2 below. There was no damage to the turf grass at any rate tested. The Colby equation expected values are also in Table 2.

[6] = system: crabgrass (Digitaria sp.); assay: Pre-emergence control of crabgrass on turf plots (Example 3)
Excerpt: as §1, §2, §6, §3, §4
(§7) Pre-emergence control of crabgrass (Digitaria sp.) was evaluated 180 days after treatment (DAT). Post-emergence control of curly dock (Rumex crispus) and shiny cudweed (Gnaphalium spicatum) parsley were evaluated at 65 days after treatment for each test rate. The evaluation results were compared with results observed in untreated control plots in the same trials as described in Example 1 to determine % control and are summarized in Table 3 below. There was no damage to the turf grass at any rate tested. The Colby equation expected values are also in Table 3.

[7] = system: curly dock (Rumex crispus); assay: Post-emergence control of curly dock on turf plots (Example 3)
Excerpt: as §1, §2, §6, §3, §4, §7

[8] = system: shiny cudweed (Gnaphalium spicatum); assay: Post-emergence control of shiny cudweed on turf plots (Example 3)
Excerpt: as §1, §2, §6, §3, §4, §7

[9] = system: crabgrass (Digitaria sp.); assay: Early post-emergent control of crabgrass on turf plots (Example 4); conditions: 1 to 4 leaf stage, 45 DAT, X-77 0.25% V/V
Excerpt: as §1, §2, §6
Test compositions containing sulfentrazone (Dismiss™ Turf Herbicide), dithiopyr (DIMENSION® Ultra 40WP Specialty Herbicide) and mixtures thereof, were diluted with water to provide the appropriate test rate concentrations. A non-ionic surfactant (X-77) was added to each test solution, 0.25% V/V. […]
Control of crabgrass (Digitaria sp.) was evaluated at 45 days after treatment for each test rate. […]

**Q.** What does the source list for `Cc1nn(-c2cc(NS(C)(=O)=O)c(Cl)cc2Cl)c(=O)n1C(F)F` [Sulfentrazone, N-[2,4-dichloro-5-[4-difluoromethyl-4,5-dihydro-3-methyl-5-oxo-1H-1,2,4-triazol-1-yl]phenyl]methanesulfonamide]?
**A.** % Control of Weeds Large Crabgrass 132 DAT ([1]; 0.25 lb/ac): 23%; % Control of Weeds Large Crabgrass 132 DAT ([1]; .0125 lb/ac): 7%; % Control of Weeds Parsley Piert 23 DAT ([2]; 0.25 lb/ac): 47%; % Control of Weeds Parsley Piert 23 DAT ([2]; .0125 lb/ac): 40%; % Control of Weeds Common Chickweed 23 DAT ([3]; 0.25 lb/ac): 45%; % Control of Weeds Common Chickweed 23 DAT ([3]; .0125 lb/ac): 23%; % Control of Weeds Shiny Cudweed 23 DAT ([4]; 0.25 lb/ac): 43%; % Control of Weeds Shiny Cudweed 23 DAT ([4]; .0125 lb/ac): 31%; % Broadleaf Weed Cover ([5]; 0.125 lb/ac): 15%; % Control of Broadleaf Weeds ([5]; 0.125 lb/ac): 16%; % Broadleaf Weed Cover ([5]; 0.25 lb/ac): 10%; % Control of Broadleaf Weeds ([5]; 0.25 lb/ac): 44%; % Control of Weeds Crabgrass 180 DAT Pre-emergent application ([6]; 0.0625 lb/ac): 0%; % Control of Weeds Crabgrass 180 DAT Pre-emergent application ([6]; 0.125 lb/ac): 0%; % Control of Weeds Crabgrass 180 DAT Pre-emergent application ([6]; 0.25 lb/ac): 0%; % Control of Weeds Curly Dock 65 DAT Post-emergent application ([7]; 0.0625 lb/ac): 0%; % Control of Weeds Curly Dock 65 DAT Post-emergent application ([7]; 0.125 lb/ac): 16%; % Control of Weeds Curly Dock 65 DAT Post-emergent application ([7]; 0.25 lb/ac): 20%; % Control of Weeds Shiny Cudweed 65 DAT Post-emergent application ([8]; 0.0625 lb/ac): 30%; % Control of Weeds Shiny Cudweed 65 DAT Post-emergent application ([8]; 0.125 lb/ac): 50%; % Control of Weeds Shiny Cudweed 65 DAT Post-emergent application ([8]; 0.25 lb/ac): 50%; % Control of Crabgrass ([9]; 0.125 lb/ac): 30%; % Control of Crabgrass ([9]; 0.25 lb/ac): 36%

**Q.** Which “% Control of Weeds Large Crabgrass 132 DAT” value ([1]; 0.5 lb/ac) does the source give for `CSC(=O)c1c(C(F)F)nc(C(F)(F)F)c(C(=O)SC)c1CC(C)C` [Dithiopyr, S,S′-dimethyl 2-(difluoromethyl)-4-(2-methylpropyl)-6-(trifluoromethyl)-3,5-pyridinedicarbothiolate] here?
**A.** 88%

**Q.** And the “% Control of Weeds Parsley Piert 23 DAT” value ([2]; 0.5 lb/ac)?
**A.** 38%

**Q.** What about the “% Control of Weeds Common Chickweed 23 DAT” value ([3]; 0.5 lb/ac) of the same compound?
**A.** 53%

**Q.** What about the “% Control of Weeds Shiny Cudweed 23 DAT” value ([4]; 0.5 lb/ac) of the same compound?
**A.** 29%

**Q.** And the “% Broadleaf Weed Cover” value ([5]; 0.125 lb/ac)?
**A.** 21%

**Q.** What about the “% Control of Broadleaf Weeds” value ([5]; 0.125 lb/ac) of the same compound?
**A.** 0%

**Q.** And the “% Broadleaf Weed Cover” value ([5]; 0.25 lb/ac)?
**A.** 8%

**Q.** What about the “% Control of Broadleaf Weeds” value ([5]; 0.25 lb/ac) of the same compound?
**A.** 55%

**Q.** And the “% Control of Weeds Crabgrass 180 DAT Pre-emergent application” value ([6]; 0.0125 lb/ac)?
**A.** 59%

**Q.** What about the “% Control of Weeds Crabgrass 180 DAT Pre-emergent application” value ([6]; 0.25 lb/ac) of the same compound?
**A.** 23%

**Q.** What about the “% Control of Weeds Curly Dock 65 DAT Post-emergent application” value ([7]; 0.0125 lb/ac) of the same compound?
**A.** 36%

**Q.** What about the “% Control of Weeds Curly Dock 65 DAT Post-emergent application” value ([7]; 0.25 lb/ac) of the same compound?
**A.** 60%

**Q.** And the “% Control of Weeds Shiny Cudweed 65 DAT Post-emergent application” value ([8]; 0.0125 lb/ac)?
**A.** 53%

**Q.** And the “% Control of Weeds Shiny Cudweed 65 DAT Post-emergent application” value ([8]; 0.25 lb/ac)?
**A.** 60%

**Q.** What about the “% Control of Crabgrass” value ([9]; 0.25 lb/ac) of the same compound?
**A.** 50%

**Q.** What about the “% Control of Crabgrass” value ([9]; 0.5 lb/ac) of the same compound?
**A.** 88%
